Measured values published in ChEMBL document CHEMBL5465560, “Selectivity Literature for EUbOPEN Chemogenomic Library” (2024).
Each block holds one compound with its values, some of them ahead of it.

Assays:
[1] = molecular target: Serine/threonine-protein kinase/endoribonuclease IRE1 (Homo sapiens) (UniProt O75460); assay: Selectivity interaction (LanthaScreen Eu Kinase Binding Assay) EUB0001632a ERN1; settings: at 10 µM
[2] = molecular target: SWI/SNF-related matrix-associated actin-dependent regulator of chromatin subfamily A member 2 (Homo sapiens, UniProt P51531); assay: Selectivity interaction (Human bromodomain panel (DSF assay)) EUB0000233b SMARCA2
[3] = molecular target: T1, Interleukin-1 receptor-associated kinase 4 (Homo sapiens) (UniProt Q9NWZ3); assay: Selectivity interaction (SelectScreen profiling (Invitrogen)) EUB0000607a IRAK4; settings: at 2 µM
T1 sequence (whole entry): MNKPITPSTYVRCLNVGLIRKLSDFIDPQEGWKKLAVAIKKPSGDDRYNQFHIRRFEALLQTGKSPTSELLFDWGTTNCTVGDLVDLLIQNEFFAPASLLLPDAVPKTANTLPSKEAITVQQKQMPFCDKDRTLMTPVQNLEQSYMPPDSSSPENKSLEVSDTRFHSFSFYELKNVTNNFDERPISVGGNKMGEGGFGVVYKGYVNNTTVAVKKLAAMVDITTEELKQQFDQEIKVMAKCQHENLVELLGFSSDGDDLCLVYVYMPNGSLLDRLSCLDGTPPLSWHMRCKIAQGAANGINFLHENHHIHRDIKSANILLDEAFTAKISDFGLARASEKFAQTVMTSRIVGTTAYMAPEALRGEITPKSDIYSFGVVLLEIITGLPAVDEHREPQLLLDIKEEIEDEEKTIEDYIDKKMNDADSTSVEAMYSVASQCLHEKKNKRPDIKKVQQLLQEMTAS

[4] = molecular target: cAMP-dependent protein kinase catalytic subunit beta (Homo sapiens) (UniProt P22694); settings: at 10 µM
[5] = molecular target: Proto-oncogene tyrosine-protein kinase Src (Homo sapiens, UniProt P12931); settings: at 10 µM
Proto-oncogene tyrosine-protein kinase Src, sequence (P12931 2-536 limits assumed): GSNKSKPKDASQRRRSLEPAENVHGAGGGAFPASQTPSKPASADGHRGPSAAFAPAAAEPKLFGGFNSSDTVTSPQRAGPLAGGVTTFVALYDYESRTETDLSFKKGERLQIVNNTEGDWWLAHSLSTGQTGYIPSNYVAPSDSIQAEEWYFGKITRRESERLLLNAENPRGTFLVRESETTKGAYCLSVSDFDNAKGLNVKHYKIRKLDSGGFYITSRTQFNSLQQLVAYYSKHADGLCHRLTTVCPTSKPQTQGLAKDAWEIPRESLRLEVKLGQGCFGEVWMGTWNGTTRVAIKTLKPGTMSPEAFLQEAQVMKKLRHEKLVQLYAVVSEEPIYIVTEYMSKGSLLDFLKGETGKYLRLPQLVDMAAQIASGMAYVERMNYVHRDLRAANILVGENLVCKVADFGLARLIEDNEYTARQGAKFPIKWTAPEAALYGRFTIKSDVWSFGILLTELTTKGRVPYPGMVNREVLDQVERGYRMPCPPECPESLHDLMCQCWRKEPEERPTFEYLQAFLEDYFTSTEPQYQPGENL

[6] = molecular target: Serine/threonine-protein kinase WNK2 (Homo sapiens) (UniProt Q9Y3S1); assay: Selectivity interaction (ActivX KiNativ screen (kinase selectivity in THP-1 cell lysates)) EUB0000639a WNK2; assay type: subcellular; settings: lysate, at 1 µM
Serine/threonine-protein kinase WNK2 (Homo sapiens), sequence (Q9Y3S1 whole entry): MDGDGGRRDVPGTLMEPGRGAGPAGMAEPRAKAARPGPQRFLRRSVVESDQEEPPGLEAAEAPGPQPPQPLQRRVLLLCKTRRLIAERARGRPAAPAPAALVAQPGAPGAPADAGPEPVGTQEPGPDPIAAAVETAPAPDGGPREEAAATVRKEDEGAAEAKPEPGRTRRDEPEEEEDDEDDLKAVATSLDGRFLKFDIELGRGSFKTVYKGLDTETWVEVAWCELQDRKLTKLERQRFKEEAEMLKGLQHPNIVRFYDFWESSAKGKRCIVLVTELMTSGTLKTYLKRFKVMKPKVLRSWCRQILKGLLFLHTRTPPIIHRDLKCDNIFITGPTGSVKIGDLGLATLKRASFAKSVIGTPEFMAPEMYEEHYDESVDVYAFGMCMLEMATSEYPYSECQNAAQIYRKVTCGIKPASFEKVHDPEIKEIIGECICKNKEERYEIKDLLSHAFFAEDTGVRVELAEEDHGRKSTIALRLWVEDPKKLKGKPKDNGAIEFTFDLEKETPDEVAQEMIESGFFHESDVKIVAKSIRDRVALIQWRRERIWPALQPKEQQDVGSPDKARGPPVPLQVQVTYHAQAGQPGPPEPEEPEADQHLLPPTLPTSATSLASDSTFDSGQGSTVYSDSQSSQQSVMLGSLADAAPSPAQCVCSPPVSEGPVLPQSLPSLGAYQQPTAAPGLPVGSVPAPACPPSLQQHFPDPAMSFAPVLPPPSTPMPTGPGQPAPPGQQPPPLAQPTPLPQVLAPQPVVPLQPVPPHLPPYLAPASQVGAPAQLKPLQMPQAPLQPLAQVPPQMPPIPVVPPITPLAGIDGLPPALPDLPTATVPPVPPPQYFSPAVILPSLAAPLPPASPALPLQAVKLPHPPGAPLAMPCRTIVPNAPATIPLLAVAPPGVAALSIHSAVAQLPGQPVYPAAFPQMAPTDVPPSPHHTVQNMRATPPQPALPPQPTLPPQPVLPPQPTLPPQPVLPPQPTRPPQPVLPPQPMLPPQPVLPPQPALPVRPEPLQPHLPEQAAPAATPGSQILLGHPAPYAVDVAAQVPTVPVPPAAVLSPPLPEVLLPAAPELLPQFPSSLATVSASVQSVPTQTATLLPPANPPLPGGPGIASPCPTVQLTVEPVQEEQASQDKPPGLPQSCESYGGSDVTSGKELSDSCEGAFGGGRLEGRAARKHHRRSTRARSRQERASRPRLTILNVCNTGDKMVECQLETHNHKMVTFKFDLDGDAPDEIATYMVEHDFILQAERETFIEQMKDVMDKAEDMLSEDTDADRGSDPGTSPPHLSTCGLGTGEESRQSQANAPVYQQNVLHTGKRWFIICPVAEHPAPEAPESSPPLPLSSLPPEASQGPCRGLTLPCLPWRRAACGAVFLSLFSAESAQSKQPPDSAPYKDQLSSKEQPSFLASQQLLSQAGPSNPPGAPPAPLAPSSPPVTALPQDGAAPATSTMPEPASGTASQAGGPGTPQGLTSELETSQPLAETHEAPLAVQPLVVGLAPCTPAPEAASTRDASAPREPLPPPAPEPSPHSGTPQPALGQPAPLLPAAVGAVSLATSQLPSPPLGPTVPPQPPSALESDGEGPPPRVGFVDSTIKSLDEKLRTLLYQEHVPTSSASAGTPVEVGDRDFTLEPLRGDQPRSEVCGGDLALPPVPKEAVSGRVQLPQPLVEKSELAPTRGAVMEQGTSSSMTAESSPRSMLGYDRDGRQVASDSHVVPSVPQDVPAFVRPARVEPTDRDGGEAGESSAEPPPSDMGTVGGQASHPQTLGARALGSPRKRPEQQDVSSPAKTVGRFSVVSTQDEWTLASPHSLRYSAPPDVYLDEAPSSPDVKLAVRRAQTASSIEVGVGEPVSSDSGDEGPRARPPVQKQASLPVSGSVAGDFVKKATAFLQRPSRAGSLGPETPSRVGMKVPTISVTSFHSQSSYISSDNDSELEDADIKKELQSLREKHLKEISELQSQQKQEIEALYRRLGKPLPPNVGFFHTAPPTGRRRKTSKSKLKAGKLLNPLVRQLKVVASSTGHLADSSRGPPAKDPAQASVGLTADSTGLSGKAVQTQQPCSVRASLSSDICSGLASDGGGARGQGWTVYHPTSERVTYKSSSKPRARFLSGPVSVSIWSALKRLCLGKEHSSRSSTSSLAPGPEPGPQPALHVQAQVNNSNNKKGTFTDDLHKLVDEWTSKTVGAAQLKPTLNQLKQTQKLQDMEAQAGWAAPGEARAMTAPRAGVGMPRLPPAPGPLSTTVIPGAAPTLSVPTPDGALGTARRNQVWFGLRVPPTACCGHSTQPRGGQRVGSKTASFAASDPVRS

[7] = molecular target: Serine/threonine-protein kinase SIK2 (Homo sapiens) (UniProt Q9H0K1); assay: Selectivity interaction (KinomeScan (DiscoverX)) EUB0000655a SIK2; settings: at 10 µM
[8] = molecular target: Tyrosine-protein kinase JAK2 (Homo sapiens, UniProt O60674); assay: Selectivity interaction (Antiproliferative activity against Tel-kinase transformed Ba/F3 cell line) EUB0000045b JAK2; assay type: cell-based; settings: BaF3
[9] = molecular target: T2, Alpha-2A adrenergic receptor (Homo sapiens) (UniProt P08913); assay: Selectivity interaction (GPCR panel (PDSP screen)) EUB0001079a ADRA2A; settings: at 10 µM
T2 sequence (whole entry): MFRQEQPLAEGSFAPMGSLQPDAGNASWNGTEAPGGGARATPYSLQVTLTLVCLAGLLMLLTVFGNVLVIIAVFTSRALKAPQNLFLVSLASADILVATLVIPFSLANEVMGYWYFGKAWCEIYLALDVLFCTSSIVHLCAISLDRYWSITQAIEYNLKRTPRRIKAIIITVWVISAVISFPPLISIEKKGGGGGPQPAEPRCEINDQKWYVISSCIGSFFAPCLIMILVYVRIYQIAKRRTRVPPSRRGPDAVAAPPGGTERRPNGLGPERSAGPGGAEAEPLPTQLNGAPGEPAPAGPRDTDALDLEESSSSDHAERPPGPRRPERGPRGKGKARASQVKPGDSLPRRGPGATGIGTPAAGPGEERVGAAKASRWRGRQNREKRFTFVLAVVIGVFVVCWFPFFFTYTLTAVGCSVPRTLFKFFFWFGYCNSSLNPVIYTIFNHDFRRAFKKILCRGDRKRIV

[10] = molecular target: Serine/threonine-protein kinase 26 (Homo sapiens, UniProt Q9P289); assay: Selectivity interaction (Kinase panel (KiNativ target engagement assay in Jurkat cells)) EUB0001635a STK26; assay type: cell-based; settings: Selectivity number of off-targets 0.0, Selectivity number of targets 233.0, Source Knowledge https://www.sciencedirect.com/science/article/pii/S2451945619300674?via%3Dihub, at 1 µM
[11] = molecular target: Serine/threonine-protein kinase 16 (Homo sapiens, UniProt O75716); assay: Selectivity interaction (KinomeScan (DiscoverX)) EUB0001550a STK16; settings: at 1 µM
Serine/threonine-protein kinase 16, sequence (O75716 whole entry): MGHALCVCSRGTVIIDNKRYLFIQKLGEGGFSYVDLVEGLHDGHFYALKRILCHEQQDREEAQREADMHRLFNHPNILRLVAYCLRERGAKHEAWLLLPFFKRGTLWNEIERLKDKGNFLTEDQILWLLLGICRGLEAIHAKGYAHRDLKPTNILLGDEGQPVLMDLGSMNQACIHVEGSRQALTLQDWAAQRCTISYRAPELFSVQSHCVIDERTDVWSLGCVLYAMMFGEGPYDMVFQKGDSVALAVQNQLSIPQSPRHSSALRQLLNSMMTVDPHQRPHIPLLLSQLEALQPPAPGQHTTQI

[12] = molecular target: Serine/threonine-protein kinase PAK 3 (Homo sapiens) (UniProt O75914); assay: Selectivity interaction (KinomeScan (DiscoverX)) EUB0000229b PAK3; settings: at 10 µM
[13] = molecular target: Calcium/calmodulin-dependent protein kinase type II subunit beta (Homo sapiens) (UniProt Q13554); settings: at 10 µM
[14] = molecular target: LIM domain kinase 1 (Homo sapiens) (UniProt P53667); settings: at 10 µM
LIM domain kinase 1 (Homo sapiens), sequence (P53667 whole entry, looked up, the tested form may be a part): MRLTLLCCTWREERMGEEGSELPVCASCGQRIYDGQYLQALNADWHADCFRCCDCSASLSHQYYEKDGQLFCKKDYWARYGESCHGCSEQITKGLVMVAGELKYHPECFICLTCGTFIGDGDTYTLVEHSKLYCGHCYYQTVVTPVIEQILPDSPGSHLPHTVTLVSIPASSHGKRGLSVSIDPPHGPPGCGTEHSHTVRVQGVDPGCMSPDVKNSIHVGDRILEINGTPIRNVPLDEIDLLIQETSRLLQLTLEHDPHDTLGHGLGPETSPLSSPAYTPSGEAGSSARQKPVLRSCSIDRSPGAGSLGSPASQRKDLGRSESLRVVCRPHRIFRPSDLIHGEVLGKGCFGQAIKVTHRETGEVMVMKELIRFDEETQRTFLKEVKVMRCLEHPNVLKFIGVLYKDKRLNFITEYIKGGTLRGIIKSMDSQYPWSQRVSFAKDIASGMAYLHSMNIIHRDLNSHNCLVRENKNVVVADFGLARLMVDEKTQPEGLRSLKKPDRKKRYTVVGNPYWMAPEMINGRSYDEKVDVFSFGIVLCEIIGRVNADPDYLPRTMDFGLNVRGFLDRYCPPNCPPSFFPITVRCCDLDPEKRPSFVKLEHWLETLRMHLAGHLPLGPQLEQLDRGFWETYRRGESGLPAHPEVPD

[15] = molecular target: Mitogen-activated protein kinase 11 (Homo sapiens) (UniProt Q15759); assay: Selectivity interaction (KinomeScan (DiscoverX)) EUB0000618a MAPK11; settings: at 10 µM
[16] = molecular target: T3, Mitogen-activated protein kinase kinase kinase 7 (Homo sapiens) (UniProt O43318); assay: Selectivity interaction (ActivX KiNativ screen (ex vivo kinase selectivity in human PBMCs)) EUB0001619a MAP3K7; assay type: cell-based; settings: PBMC, at 1 µM
T3 sequence (whole entry): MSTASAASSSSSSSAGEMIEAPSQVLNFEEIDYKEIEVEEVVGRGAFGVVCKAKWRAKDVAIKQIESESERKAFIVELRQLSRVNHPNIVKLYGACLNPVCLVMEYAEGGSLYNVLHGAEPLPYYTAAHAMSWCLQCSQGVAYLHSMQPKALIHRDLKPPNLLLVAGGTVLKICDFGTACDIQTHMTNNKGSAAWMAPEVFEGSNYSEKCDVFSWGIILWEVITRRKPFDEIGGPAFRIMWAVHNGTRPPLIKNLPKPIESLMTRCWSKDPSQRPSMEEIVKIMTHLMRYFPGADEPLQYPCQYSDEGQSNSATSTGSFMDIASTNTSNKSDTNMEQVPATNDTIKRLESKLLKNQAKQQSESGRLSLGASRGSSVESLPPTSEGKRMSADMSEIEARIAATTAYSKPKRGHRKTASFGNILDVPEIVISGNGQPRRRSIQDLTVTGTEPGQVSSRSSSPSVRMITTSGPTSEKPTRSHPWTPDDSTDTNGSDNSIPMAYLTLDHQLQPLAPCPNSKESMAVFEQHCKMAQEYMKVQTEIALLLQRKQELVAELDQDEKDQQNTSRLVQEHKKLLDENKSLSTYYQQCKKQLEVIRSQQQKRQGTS

Serine/threonine-protein kinase/endoribonuclease IRE1 (Homo sapiens), sequence (O75460 19-977 limits assumed): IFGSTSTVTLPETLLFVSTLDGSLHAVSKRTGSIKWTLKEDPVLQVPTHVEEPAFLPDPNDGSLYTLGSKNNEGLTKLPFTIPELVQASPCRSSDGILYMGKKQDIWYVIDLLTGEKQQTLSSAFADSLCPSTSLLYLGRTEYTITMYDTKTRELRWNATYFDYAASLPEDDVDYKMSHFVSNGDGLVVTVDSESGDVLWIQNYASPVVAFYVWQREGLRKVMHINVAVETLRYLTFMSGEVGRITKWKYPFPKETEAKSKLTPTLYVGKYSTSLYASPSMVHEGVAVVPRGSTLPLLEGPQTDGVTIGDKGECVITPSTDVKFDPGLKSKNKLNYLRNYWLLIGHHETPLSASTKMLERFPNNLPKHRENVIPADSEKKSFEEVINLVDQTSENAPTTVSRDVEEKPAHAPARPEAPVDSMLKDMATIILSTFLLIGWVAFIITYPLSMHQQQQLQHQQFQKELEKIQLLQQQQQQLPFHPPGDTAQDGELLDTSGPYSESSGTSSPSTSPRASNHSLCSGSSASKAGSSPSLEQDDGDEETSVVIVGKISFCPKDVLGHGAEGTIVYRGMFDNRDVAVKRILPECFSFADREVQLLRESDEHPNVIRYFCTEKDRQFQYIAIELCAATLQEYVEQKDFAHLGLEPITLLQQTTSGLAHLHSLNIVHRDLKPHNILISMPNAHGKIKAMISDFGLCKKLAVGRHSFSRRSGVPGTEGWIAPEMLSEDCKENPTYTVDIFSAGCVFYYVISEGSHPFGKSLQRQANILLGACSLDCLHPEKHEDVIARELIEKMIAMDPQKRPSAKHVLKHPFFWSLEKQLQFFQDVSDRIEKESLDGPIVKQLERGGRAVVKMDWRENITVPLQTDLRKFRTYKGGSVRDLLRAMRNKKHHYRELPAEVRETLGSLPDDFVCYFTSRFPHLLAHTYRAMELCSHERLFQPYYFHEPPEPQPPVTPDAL

- % of inhibition [1]: -111%
SMILES: Cn1cc(-n2cnc3c(NCc4nc5cc(Cl)c(Cl)cc5[nH]4)nc(N4CCOCC4)nc32)cn1

- dTM [2]: < 2 K
SMILES: CN(C)CCCOc1ccc(-c2cc(NCCCn3cccn3)nc(S(C)(=O)=O)n2)cc1

SMILES: CNC(=O)Nc1ccc(-c2nc(N3CC4CCC(C3)O4)c3cnn(C4CCC5(CC4)OCCO5)c3n2)cc1
- % of inhibition [3]: 3%

- % of control [4]: 100%
- % of control [5]: 100%
SMILES: CCN(CC)CCCCNc1ncc2cc(-c3cc(OC)cc(OC)c3)c(NC(=O)NC(C)(C)C)nc2n1

- % of inhibition [6]: -7.7%
SMILES: CC[C@@H]1[C@H](F)C(=O)N[C@@H]1COc1nccc2cc(C(N)=O)c(OC)cc12 [ZIMLOVISERTIB]

SMILES: CN(C)CCOc1ccc(-c2nc(-c3ccncc3)c(-c3ccc4c(c3)CC/C4=N\O)[nH]2)cc1
- % of control [7]: 91%

SMILES: C=CC(=O)Nc1cc(-n2c(=O)ccc3cnc4ccc(-c5ccc(NS(C)(=O)=O)cc5)cc4c32)ccc1C
- GIC50 [8]: 5.83 µM

SMILES: Nc1cnc(N2CCc3cc(S(=O)(=O)Nc4c(F)cc(Cl)cc4F)cc(N4CCCC4=O)c32)nc1 [TP-020n]
- % of inhibition [9]: -10.1%

SMILES: C=CC(=O)Nc1ccc(C(=O)Nc2[nH]nc3c2CN(C(=O)N[C@H](CN(C)C)c2ccccc2)C3(C)C)cc1
- % of engagement [10]: 26%

- % of control [11]: 14%
SMILES: CN(C)CC#Cc1ccc2[nH]c3c(c2c1)-c1nc(N)ncc1CCC3

SMILES: COc1cc(N(C)c2ccnc3ccc(C(F)(F)F)cc23)cc(OC)c1OC
- % binding [12]: 96%

SMILES: Cc1cc([C@@H](C)Nc2ccccc2C(=O)O)c2nc(N3CCOCC3)cc(=O)n2c1 [AZD-6482]
- % of control [13]: 83%
- % of control [14]: 100%

SMILES: O[C@H]1CC[C@H](Nc2ncc3nc(Nc4c(F)cc(F)cc4F)n([C@H]4CCOC4)c3n2)CC1
- % of control [15]: 24%

SMILES: N#Cc1cccc(-c2c[nH]c3ncnc(N4CCOCC4)c23)c1
- % of inhibition [16]: 8%
